One assay addresses T1, PDGFRB (Homo sapiens, UniProt P09619).
T1 construct: purchased Eurofins/DiscoverX
The assay can be described thus: Eurofins/DiscoverX kinase assay, PDGFRB IC50. It is filed as binding. On the procedure:
(§1) The 3i-compounds underwent activity testing against a panel of 32 bromodomains using the Eurofins/DiscoverX bromoMAX assay, with specific focus on TAF1(2) bromodomain assessed by the KdELECT assay. In a similar manner, kinase activity was evaluated using a panel of 97 kinase proteins using the Eurofins/DiscoverX scanELECT and KdELECT assays, with specific focus on FLT3 protein. An 11-point 3-fold serial dilution of each test compound was prepared in 100% DMSO at 100x final test concentration and subsequently diluted to final concentration (DMSO 1%). […] Percent control was calculated using the following formula: ((test compound signal – positive control signal)/ (negative control signal – positive control signal)) × 100.

The target in a further assay is T2, c-KIT (Homo sapiens, UniProt P10721).
T2 construct: purchased Eurofins/DiscoverX
T2 sequence (P10721 26-976): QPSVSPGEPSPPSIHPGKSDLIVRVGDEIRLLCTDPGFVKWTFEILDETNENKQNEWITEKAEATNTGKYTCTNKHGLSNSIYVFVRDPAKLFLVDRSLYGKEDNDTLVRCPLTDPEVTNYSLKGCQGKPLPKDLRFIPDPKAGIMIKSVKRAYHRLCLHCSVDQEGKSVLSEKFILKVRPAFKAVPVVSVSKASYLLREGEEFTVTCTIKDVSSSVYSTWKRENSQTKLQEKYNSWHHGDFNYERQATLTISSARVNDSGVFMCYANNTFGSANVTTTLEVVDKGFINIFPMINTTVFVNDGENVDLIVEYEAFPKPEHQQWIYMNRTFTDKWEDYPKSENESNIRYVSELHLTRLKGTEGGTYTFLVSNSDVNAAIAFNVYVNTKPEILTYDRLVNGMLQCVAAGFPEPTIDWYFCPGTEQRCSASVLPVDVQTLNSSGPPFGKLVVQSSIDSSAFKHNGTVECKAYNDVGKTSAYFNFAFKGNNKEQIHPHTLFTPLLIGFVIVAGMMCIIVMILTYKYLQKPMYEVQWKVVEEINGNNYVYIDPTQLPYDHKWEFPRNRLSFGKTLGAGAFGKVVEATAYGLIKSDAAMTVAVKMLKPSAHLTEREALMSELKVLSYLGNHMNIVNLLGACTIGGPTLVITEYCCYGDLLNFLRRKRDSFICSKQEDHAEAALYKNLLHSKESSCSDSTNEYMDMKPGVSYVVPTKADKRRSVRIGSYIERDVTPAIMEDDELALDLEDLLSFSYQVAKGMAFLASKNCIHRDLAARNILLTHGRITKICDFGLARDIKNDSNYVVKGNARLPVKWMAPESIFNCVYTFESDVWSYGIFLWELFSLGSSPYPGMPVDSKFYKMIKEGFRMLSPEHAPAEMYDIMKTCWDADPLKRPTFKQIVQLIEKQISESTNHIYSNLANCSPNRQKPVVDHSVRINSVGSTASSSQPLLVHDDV
Kind of assay: Eurofins/DiscoverX kinase assay, c-KIT IC50. It is filed as binding. On the procedure: as §1

As usually defined, the IC50 is the concentration that gives 50% inhibition. Low values mean greater potency in that assay, high ones weaker potency in that assay.

T1 sequence (P09619 33-1106): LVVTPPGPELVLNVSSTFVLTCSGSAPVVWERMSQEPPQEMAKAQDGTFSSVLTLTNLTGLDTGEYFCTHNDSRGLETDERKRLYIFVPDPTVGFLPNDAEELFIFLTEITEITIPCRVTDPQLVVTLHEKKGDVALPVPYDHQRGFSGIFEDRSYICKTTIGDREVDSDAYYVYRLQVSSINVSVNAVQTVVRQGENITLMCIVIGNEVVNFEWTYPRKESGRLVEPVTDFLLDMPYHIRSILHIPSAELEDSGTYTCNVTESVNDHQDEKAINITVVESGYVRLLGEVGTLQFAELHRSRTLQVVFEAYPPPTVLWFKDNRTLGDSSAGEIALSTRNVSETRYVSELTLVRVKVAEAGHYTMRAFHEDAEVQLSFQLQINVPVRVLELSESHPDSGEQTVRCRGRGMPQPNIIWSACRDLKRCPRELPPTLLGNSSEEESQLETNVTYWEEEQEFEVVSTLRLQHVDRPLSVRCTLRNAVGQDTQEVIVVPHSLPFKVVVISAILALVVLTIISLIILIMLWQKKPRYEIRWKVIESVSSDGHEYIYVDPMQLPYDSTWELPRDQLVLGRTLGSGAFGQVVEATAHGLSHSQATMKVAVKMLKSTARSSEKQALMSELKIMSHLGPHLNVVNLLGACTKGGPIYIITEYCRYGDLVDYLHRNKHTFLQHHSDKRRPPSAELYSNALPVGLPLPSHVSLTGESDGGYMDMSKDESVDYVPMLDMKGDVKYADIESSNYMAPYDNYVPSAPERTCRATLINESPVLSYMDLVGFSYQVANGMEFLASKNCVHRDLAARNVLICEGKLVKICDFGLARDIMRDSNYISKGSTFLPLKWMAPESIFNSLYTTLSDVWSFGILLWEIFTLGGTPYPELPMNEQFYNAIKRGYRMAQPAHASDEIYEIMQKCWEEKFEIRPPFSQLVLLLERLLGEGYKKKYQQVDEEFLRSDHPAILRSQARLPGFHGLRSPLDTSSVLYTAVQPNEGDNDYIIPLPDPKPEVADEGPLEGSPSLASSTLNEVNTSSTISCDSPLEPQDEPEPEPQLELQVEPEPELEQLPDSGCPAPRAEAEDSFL

For the molecule `CC(C)(C)c1ccc(C(=O)Nc2cc(-c3ccccc3)n[nH]2)cc1` [Compound 3i-1247, 4-(tert-butyl)-N-(3-phenyl-1H-pyrazol-5-yl)benzamide], the half-maximal inhibitory concentration (IC50) against PDGFRB worked out at 3.4 nM; against c-KIT, 8.5 nM.

(Values after paper PMC11952222, “Development and comparison of single FLT3-inhibitors to dual FLT3/TAF1-inhibitors as an anti-leukemic approach” (PLOS One, 2025).)
